According to US20250313535A1, “ALPHA 4 BETA 7 INTEGRIN MODULATORS AND USES THEREOF” (DICE MOLECULES SV, INC., priority 2022, published 2025):
Like-named read-outs stand apart in the source and are kept apart here.

Legend:
α4β1 integrin = α4β1 integrin (Homo sapiens (Human), UniProt P05556+P13612); assay: Integrin Adhesion Assay: Protocol 5 (VCAM-coated plate, RPMI-8866 cells with stable LOF mutation of the ITGB7 gene); format: cell-based
In short: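 RPMI-8866 B cells with CRISPR/Cas9 ITGB7 knockout (clonal, verified by flow cytometry) adhered to VCAM-coated wells for 1 h at 37° C in HEPES/NaCl buffer with 1 mM MnCl2, 0.1 mM CaCl2, 1% BSA, 1% DMSO. Bound cells quantified by CellTiter-Glo luminescence after washing; % inhibition versus DMSO and control, 4-parameter fit.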

α4β7 integrin = α4β7 integrin (Homo sapiens (Human), UniProt P13612+P26010); assay: Integrin Adhesion Assay: Protocol 4 (MAdCAM-coated plate, RPMI-8866 cells with stable LOF mutation of the ITGB1 gene); format: cell-based
In short: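 RPMI-8866 cells with CRISPR/Cas9 knockout of ITGB1 (2×10^6/mL) were added to MAdCAM-coated wells with compound (1% DMSO) in HEPES/NaCl buffer with 1 mM MnCl2, 0.1 mM CaCl2 and 1% BSA, then incubated 1 h at 37 °C. After four washes, adherent cells were quantified by CellTiter-Glo luminescence. Percent inhibition versus DMSO and control compound was fitted to 4-parameter curves.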

[1] = RPMI-8866 cells with stable LOF mutation of the ITGB7 gene, read-out: Mean IC50 α4β1 KO^b
[2] = RPMI-8866 cells with stable LOF mutation of the ITGB1 gene, read-out: Mean IC50 α4β7 KO^a
[3] = Protocol 5, RPMI-8866 cells with LOF mutation of ITGB7, VCAM, read-out: Mean IC50 α4β1 KO
[4] = Protocol 4, RPMI-8866 cells with LOF mutation of ITGB1, MAdCAM, read-out: Mean IC50 α4β7 KO

α4β1 integrin, sequence (P13612 34-1032): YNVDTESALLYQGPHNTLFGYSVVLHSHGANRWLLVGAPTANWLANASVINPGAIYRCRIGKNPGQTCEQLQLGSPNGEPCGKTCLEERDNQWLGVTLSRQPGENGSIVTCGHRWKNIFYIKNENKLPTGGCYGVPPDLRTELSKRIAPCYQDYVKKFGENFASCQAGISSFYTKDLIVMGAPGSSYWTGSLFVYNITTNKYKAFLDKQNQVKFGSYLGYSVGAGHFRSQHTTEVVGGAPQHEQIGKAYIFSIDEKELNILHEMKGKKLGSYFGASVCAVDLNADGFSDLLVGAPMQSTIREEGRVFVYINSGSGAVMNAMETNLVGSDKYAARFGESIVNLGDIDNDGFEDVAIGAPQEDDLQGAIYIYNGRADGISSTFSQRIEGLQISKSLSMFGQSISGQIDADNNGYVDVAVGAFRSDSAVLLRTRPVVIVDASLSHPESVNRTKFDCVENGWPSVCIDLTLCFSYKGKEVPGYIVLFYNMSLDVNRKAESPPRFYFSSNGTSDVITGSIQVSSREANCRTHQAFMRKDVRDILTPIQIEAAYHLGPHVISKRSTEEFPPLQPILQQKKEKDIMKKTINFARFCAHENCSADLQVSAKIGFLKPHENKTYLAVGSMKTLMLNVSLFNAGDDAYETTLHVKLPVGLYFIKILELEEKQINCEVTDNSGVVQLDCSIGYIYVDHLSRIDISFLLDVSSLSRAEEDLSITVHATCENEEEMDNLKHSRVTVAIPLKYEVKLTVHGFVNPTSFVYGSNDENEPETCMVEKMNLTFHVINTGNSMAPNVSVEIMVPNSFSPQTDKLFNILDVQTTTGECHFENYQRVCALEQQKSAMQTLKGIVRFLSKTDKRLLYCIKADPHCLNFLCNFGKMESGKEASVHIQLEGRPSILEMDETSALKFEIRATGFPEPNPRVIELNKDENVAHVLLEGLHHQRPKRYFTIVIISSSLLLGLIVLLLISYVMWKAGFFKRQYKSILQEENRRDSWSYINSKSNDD
α4β1 integrin, sequence (P05556 21-798): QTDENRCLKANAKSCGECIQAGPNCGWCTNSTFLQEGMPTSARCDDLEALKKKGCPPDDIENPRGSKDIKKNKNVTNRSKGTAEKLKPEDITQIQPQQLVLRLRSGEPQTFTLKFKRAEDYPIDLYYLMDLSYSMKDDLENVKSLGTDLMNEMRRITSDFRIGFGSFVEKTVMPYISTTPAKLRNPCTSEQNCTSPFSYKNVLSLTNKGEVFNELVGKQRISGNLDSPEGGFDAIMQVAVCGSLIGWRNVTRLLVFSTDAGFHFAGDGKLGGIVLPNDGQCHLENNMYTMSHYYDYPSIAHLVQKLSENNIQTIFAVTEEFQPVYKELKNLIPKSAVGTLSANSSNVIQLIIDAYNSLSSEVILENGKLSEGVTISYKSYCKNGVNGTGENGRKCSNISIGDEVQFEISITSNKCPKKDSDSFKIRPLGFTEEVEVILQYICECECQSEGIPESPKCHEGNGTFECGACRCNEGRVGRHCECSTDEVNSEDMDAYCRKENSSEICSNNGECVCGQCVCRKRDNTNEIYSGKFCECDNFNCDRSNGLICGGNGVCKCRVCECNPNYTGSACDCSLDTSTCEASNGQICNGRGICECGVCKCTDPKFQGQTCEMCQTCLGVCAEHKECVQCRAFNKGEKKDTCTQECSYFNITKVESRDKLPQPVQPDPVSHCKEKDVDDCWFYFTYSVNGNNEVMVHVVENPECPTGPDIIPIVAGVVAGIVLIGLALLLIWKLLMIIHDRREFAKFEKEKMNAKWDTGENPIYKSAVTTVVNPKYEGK
α4β7 integrin, sequence (P13612 34-1032): as the sequence (P13612 34-1032) above
α4β7 integrin, sequence (P26010 20-798): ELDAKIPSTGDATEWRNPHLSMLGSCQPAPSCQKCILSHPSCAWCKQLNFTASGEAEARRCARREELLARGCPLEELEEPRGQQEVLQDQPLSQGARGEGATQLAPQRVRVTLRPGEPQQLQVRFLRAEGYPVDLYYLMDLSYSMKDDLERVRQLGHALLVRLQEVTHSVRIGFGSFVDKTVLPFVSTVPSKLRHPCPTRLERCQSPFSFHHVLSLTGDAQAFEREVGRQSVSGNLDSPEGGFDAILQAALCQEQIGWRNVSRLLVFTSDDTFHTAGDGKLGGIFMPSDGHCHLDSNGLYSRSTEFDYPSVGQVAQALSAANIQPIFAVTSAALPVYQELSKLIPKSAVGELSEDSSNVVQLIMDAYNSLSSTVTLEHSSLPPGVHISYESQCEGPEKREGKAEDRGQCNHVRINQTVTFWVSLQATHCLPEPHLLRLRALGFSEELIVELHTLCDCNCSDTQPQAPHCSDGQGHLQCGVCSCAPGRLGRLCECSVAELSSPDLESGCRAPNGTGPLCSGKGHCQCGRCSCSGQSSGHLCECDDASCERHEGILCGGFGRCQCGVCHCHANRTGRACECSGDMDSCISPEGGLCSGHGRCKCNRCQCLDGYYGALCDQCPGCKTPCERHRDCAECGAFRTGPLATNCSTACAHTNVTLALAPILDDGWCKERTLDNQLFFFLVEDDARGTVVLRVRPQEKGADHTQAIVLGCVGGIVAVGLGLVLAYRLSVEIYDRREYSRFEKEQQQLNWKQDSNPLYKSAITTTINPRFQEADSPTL

Structure (SMILES) | IC50 (α4β1 integrin; [1]) | IC50 (α4β7 integrin; [2]) | IC50 (α4β1 integrin; [3]) | IC50 (α4β7 integrin; [4])
COc1cccc(CCCN(C)C)c1-c1cccc2c(C[C@H](NC(=O)C3(C(F)(F)F)CCN(CC(F)(F)F)CC3)C(=O)O)cccc12 [Compound 567] | 100 to 1000 nM | < 10 nM | – | –
O=C(O)[C@H](Cc1cccc2c(-c3cccc4c3OCCO4)cccc12)NC(=O)C1(C(F)(F)F)CCN(CC(F)(F)F)CC1 [Compound 766] | – | – | > 1000 nM | 10 to 100 nM
O=C(O)[C@H](Cc1cccc2c(-c3nccc4c(CN5CCOCC5)cccc34)cccc12)NC(=O)C1(C(F)(F)F)CCN(CC(F)(F)F)CC1 [Compound 559] | > 1000 nM | < 10 nM | – | –
COc1cc(CN2CCC[C@H](F)C2)cc(C(F)(F)F)c1-c1cccc2c(C[C@H](NC(=O)C3(C(F)(F)F)CCN(CC(F)(F)F)CC3)C(=O)O)cccc12 [Compound 848] | – | – | > 1000 nM | 10 to 100 nM
COc1cccc(CCN2CCC(C)C(F)(F)CC2)c1-c1cccc2c(C[C@H](NC(=O)C3(C(F)(F)F)CCN(CC(F)F)CC3)C(=O)O)cccc12 (stereo partly shown) [Compound 971] | – | – | 100 to 1000 nM | < 10 nM
O=C(O)[C@H](Cc1cccc2c(-c3ncc(CN4CCC5(CC4)CC5)c4ccccc34)cccc12)NC(=O)C1(C(F)(F)F)CCN(CC(F)F)CC1 [Compound 912] | – | – | > 1000 nM | < 10 nM
Cc1cc(CN2CCCCC2)cnc1-c1cccc2c(C[C@H](NC(=O)C3(C(F)(F)F)CCN(CC(F)F)CC3)C(=O)O)cccc12 [Compound 721] | – | – | > 1000 nM | 10 to 100 nM
O=C(O)[C@H](Cc1cccc2c(-c3ncc(CN4CCC5(CC4)CC5)c4ccccc34)cccc12)NC(=O)C1(C(F)(F)F)CCN(C2COC2)CC1 [Compound 694] | – | – | 100 to 1000 nM | < 10 nM
Cc1cc(C(F)(F)F)c(-c2cccc3c(C[C@H](NC(=O)C4(C(F)(F)F)CCN(CC(F)(F)F)CC4)C(=O)O)cccc23)c(=O)n1C [Compound 453] | 100 to 1000 nM | < 10 nM | – | –
O=C(O)[C@H](Cc1cccc2c(-c3ncc(CN4CC5(CC5)C4)c4ccccc34)cccc12)NC(=O)C1(C(F)(F)F)CCN(CC(F)F)CC1 [Compound 908] | – | – | 100 to 1000 nM | < 10 nM
O=C(O)[C@H](Cc1cccc2c(-c3ncc(CN4CCC[C@@H](F)C4)cc3C3CC3)cccc12)NC(=O)C1(C(F)(F)F)CCN(CC(F)F)CC1 [Compound 954] | – | – | 100 to 1000 nM | < 10 nM
COc1cccc(CCN2CCC(F)(F)CC2)c1-c1cccc2c(C[C@H](NC(=O)C3(C(F)(F)F)CCN(CC(F)(F)F)CC3)C(=O)O)cccc12 [Compound 974] | – | – | > 1000 nM | 10 to 100 nM
COc1ccc2c(c1-c1cccc3c(C[C@H](NC(=O)C4(C(F)(F)F)CCN(CC(F)(F)F)CC4)C(=O)O)cccc13)CCN(CC(F)F)C2 [Compound 752] | – | – | > 1000 nM | 10 to 100 nM
O=C(O)[C@H](Cc1cccc2c(-c3ncc(CN4CCOCC45CC5)c4ccccc34)cccc12)NC(=O)C1(C(F)(F)F)CCN(CC(F)F)CC1 [Compound 914] | – | – | 100 to 1000 nM | < 10 nM
O=C(O)[C@H](Cc1cccc2c(-c3ncc(CN4CCCCC4)c4ccccc34)cccc12)NC(=O)C1(C(F)(F)F)CCN(CC2(C(F)(F)F)CC2)CC1 [Compound 683] | > 1000 nM | < 10 nM | – | –
CC1(C)CCCN(Cc2cnc(-c3cccc4c(C[C@H](NC(=O)C5(C(F)(F)F)CCN(CC(F)(F)F)CC5)C(=O)O)cccc34)c3ccccc23)CC1 [Compound 876] | – | – | > 1000 nM | < 10 nM
O=C(O)[C@H](Cc1cccc2c(-c3ncc(CN4CCN(C5CC5)CC4)c4ccccc34)cccc12)NC(=O)C1(C(F)(F)F)CCN(CC(F)(F)F)CC1 [Compound 868] | – | – | > 1000 nM | < 10 nM
Cn1c(=O)c(-c2cccc3c(C[C@H](NC(=O)C4(C(F)(F)F)CCN(CC(F)F)CC4)C(=O)O)cccc23)c(C(F)(F)F)c2cc(C(F)(F)F)ccc21 [Compound 537] | > 1000 nM | 10 to 100 nM | – | –
Cn1c(=O)c(-c2cccc3c(C[C@H](NC(=O)C4(C(F)(F)F)CCN([C@H]5CCOC5)CC4)C(=O)O)cccc23)c(C(F)(F)F)c2ccccc21 [Compound 457] | 100 to 1000 nM | < 10 nM | – | –
COc1cccc(CCN2CCC(F)CC2)c1-c1cccc2c(C[C@H](NC(=O)C3(C(F)(F)F)CCN(CC(F)(F)F)CC3)C(=O)O)cccc12 [Compound 968] | – | – | 100 to 1000 nM | < 10 nM
CC1(C(=O)N[C@@H](Cc2cccc3c(-c4ncc(CN5CCCCC5)c5ccccc45)cccc23)C(=O)O)CC2CCC(C1)N2CC(F)F (stereo partly shown) [Compound 684] | > 1000 nM | 10 to 100 nM | – | –
Cn1c(=O)c(-c2cccc3c(C[C@H](NC(=O)C4(C(F)(F)F)CCN(C5(C(F)(F)F)COC5)CC4)C(=O)O)cccc23)c(C(F)(F)F)c2ccccc21 [Compound 491] | > 1000 nM | 100 to 1000 nM | – | –
COc1cc(CN2CCCCC2)ccc1-c1cccc2c(C[C@H](NC(=O)C3(C(F)(F)F)CCN(CC(F)(F)F)CC3)C(=O)O)cccc12 [Compound 831] | – | – | > 1000 nM | < 10 nM
O=C(O)[C@H](Cc1cccc2c(-c3ncc(CN4CCC[C@H](F)C4)cc3C3CC3)cccc12)NC(=O)C1(C(F)(F)F)CCN(CC(F)F)CC1 [Compound 953] | – | – | 100 to 1000 nM | < 10 nM
Cn1c(=O)c(-c2cccc3c(C[C@H](NC(=O)C4(C(F)(F)F)CCN(C5COC(C(F)(F)F)C5)CC4)C(=O)O)cccc23)c(C(F)(F)F)c2ccccc21 (stereo partly shown) [Compound 507] | > 1000 nM | 100 to 1000 nM | – | –
O=C(O)[C@H](Cc1cccc2c(-c3ncc(CN4CCCCC4)c4ccccc34)cccc12)NC(=O)C1(C(F)(F)F)CCN(CCC(F)(F)F)CC1 [Compound 682] | > 1000 nM | < 10 nM | – | –
O=C(O)[C@H](Cc1cccc2c(-c3ncc(CN4CCCCC4)c4ccccc34)cccc12)NC(=O)C1(C(F)(F)F)CCN([C@@H]2COCC2(F)F)CC1 [Compound 578] | > 1000 nM | < 10 nM | – | –
Cn1c(=O)c(-c2cccc3c(C[C@H](NC(=O)C4(C(F)(F)F)CCN(CC(F)(F)F)CC4)C(=O)O)cccc23)c(C(F)(F)F)c2cc(CN3CCC(F)CC3)ccc21 [Compound 833] | – | – | 100 to 1000 nM | < 10 nM

More lines, now with the values ahead:

IC50 (α4β1 integrin; [1]) | IC50 (α4β7 integrin; [2]) | IC50 (α4β1 integrin; [3]) | IC50 (α4β7 integrin; [4]) | Structure (SMILES)
100 to 1000 nM | < 10 nM | – | – | COc1ccc(CN2CCN(C3CCC3)CC2)c(OC)c1-c1cccc2c(C[C@H](NC(=O)c3c(C)cccc3F)C(=O)O)cccc12 [Compound 656]
100 to 1000 nM | < 10 nM | – | – | COc1ccc(CN2CCCC(C)C2)c(OC)c1-c1cccc2c(C[C@H](NC(=O)c3c(C)cccc3F)C(=O)O)cccc12 (stereo partly shown) [Compound 643]
– | – | 100 to 1000 nM | < 10 nM | COc1cccc(CN2CCCCC2)c1-c1cccc2c(C[C@H](NC(=O)c3c(C)cccc3F)C(=O)O)cccc12 [Compound 1014]
> 1000 nM | 10 to 100 nM | – | – | COc1ccc(CN2CCC(F)(F)CC2)c(OC)c1-c1cccc2c(C[C@H](NC(=O)C3(C(F)(F)F)CCN(C4COCC4(F)F)CC3)C(=O)O)cccc12 (single isomer, unassigned) [Compound 640]
– | – | > 1000 nM | < 10 nM | COc1cnc(CN2CCC3(CCCCC3)CC2)c(OC)c1-c1cccc2c(C[C@H](NC(=O)c3c(C)cccc3F)C(=O)O)cccc12 [Compound 1039]
– | – | 100 to 1000 nM | < 10 nM | CCc1c(CN(C)C)ccc(OC)c1-c1cccc2c(C[C@H](NC(=O)c3c(C)cccc3F)C(=O)O)cccc12 [Compound 1044]
100 to 1000 nM | < 10 nM | – | – | COc1ccc(CN(C)C)c(OC)c1-c1cccc2c(C[C@H](NC(=O)c3c(C)cccc3Cl)C(=O)O)cccc12 [Compound 613]
> 1000 nM | 10 to 100 nM | – | – | COc1ccc(CN(C)C)c(OC)c1-c1cccc2c(C[C@H](NC(=O)c3c(C)cc(C(F)(F)F)cc3F)C(=O)O)cccc12 [Compound 603]
100 to 1000 nM | < 10 nM | – | – | COc1cc2c(c(OC)c1-c1cccc3c(C[C@H](NC(=O)c4c(C)cccc4F)C(=O)O)cccc13)CN(CC(F)(F)F)CC2 [Compound 475]
– | – | 100 to 1000 nM | < 10 nM | COc1ccc(CN2CCN(C)C(C)(C)C2)c(OC)c1-c1cccc2c(C[C@H](NC(=O)C3(C(F)(F)F)CCN(CC(F)(F)F)CC3)C(=O)O)cccc12 [Compound 810]
– | – | 100 to 1000 nM | < 10 nM | COc1ccc(CN2CCCCC2)nc1-c1cccc2c(C[C@H](NC(=O)c3c(C)cccc3F)C(=O)O)cccc12 [Compound 1016]
> 1000 nM | 10 to 100 nM | – | – | COc1ccc(CN2CCC(F)(F)C2)c(OC)c1-c1cccc2c(C[C@H](NC(=O)c3c(C)cccc3F)C(=O)O)cccc12 [Compound 597]
– | – | 100 to 1000 nM | < 10 nM | COc1ccc(CN2CCC(C)(C)CC2)c(OC)c1-c1cccc2c(C[C@H](NC(=O)C3(C(F)(F)F)CCN(CC(F)(F)F)CC3)C(=O)O)cccc12 [Compound 789]
– | – | > 1000 nM | 10 to 100 nM | COc1ccc(CN2CCN(Cc3ccc(C(F)(F)F)cc3)CC2)c(OC)c1-c1cccc2c(C[C@H](NC(=O)C3(C(F)(F)F)CCN(CC(F)(F)F)CC3)C(=O)O)cccc12 [Compound 806]
> 1000 nM | < 10 nM | – | – | COc1ccc(CN2CCC(F)(F)CC2)c(OC)c1-c1cccc2c(C[C@H](NC(=O)C3(C(F)(F)F)CCN(C4COC4)CC3)C(=O)O)cccc12 [Compound 611]
100 to 1000 nM | < 10 nM | – | – | COc1ccc(CN(C)C)c(OC)c1-c1cccc2c(C[C@H](NC(=O)c3c(F)cccc3Cl)C(=O)O)cccc12 [Compound 610]
